Experimental data taken from article PMC5640650, “NatD promotes lung cancer progression by preventing histone H4 serine phosphorylation to activate Slug expression” (Nature Communications, 2017).

Tests used:
H1299 cells = assay: TGF-β1-induced EMT experiment (morphology), H1299 cells; type: cell-based, human; conditions: TGF-β1-treated NatD knockdown H1299 cells
Text: Fig. 4 Silencing NatD suppresses cancer cell EMT by downregulating Slug. a Representative phase contrast images of Scr and NatD-KD H1299 cells treated with TGF-β1. Data are representative of three independent experiments. Scale bar, 100 μm. b Quantitative real-time PCR analysis of mRNA levels of indicated key EMT-related genes in Scr and NatD-KD H1299 cells normalized to GAPDH in the absence or presence of TGF-β1. Results are shown as mean ± s.d. of three independent experiments. Two-tailed Student’s t-test was used. **P < 0.01 or *P < 0.05 compared with the indicated control. c Western blot analysis of indicated protein levels in Scr and NatD-KD H1299 cells in the absence or presence of TGF-β1. GAPDH served as a loading control. Data are representative of three independent experiments. d Immunofluorescence analysis of Scr and NatD-KD H1299 cells in the absence or presence of TGF-β1 stained for E-cadherin and N-cadherin. […] (bottom panels) Cells were counted in at least four random microscope fields (×100 magnification) for the corresponding assays; migration and invasion are expressed as a percentage of control. […] Two-tailed Student’s t-test was used. **P < 0.01 compared with the indicated control. g Quantitative real-time PCR analysis of the mRNA levels of NatD and indicated key EMT-related genes (normalized to GAPDH) in Scr cells, NatD-KD cells, and NatD-KD + Slug cells. […]

LLC cells = assay: Expression of EMT genes, LLC cells; type: cell-based, murine; conditions: vs Scr
Experimental: Cellular proteins were extracted by RIPA lysis buffer at high salt concentration (420 mM NaCl), and western blot analysis was performed in accordance with standard protocols. Scans of enhanced chemiluminescence (ECL) films showing uncropped blots are presented in Supplementary Fig. 10. […]
Total RNA from tissue samples and cultured cells was extracted using TRIzol reagent (Invitrogen). cDNAs were synthesized with a HiScript 1st Strand cDNA Synthesis Kit (Vazyme Biotech, China). Quantitative RT-PCR was performed using a FastStart Universal SYBR Green Master (Roche) according to the manufacturer’s instructions in a Rotor-Gene 6000 (Corbett Research) in a final volume of 20 μl. […]
Representative blots from three independent experiments. […] (bottom) Cell migration and invasion expressed as a percentage of Scr control. […]
Results are shown as mean ± s.d. from 5 mice; two-tailed Student’s t-test, **P<0.01 compared to Scr control. (e) Quantitative real-time PCR analysis of mRNA levels of NatD and key EMT-related genes in Scr control and NatD-KD LLC cells normalized to GAPDH. […]

NatD-KD2: Human NatD shRNA KD2: 5′-GGTTGAATGTCTCCATTGA-3′, lentiviral (shRNA lentiviral)
morphology on TGF-β1 treatment, NatD knockdown cells (H1299 cells): mostly retained their rounded epithelial morphology
expression of E-cadherin (LLC cells): increased the expression
expression of Slug, N-cadherin, and Vimentin (LLC cells): decreased the expression
